Laboratory results published in ChEMBL document CHEMBL1141524 (Bioorg Med Chem Lett, 2008).
Values joined by “and” are separate entries in the source; they are usually repeats but may differ in a detail not shown here. Equal entries are not always repeated. Non-standard residues stand in square brackets, D forms with d. Residues, ends and D or L forms follow the SMILES beside them. Gly(N-4-hydroxybenzyl) = O=C(O)CNCc1ccc(O)cc1

Experiment: Displacement of [3H]neurotensin from pig NTR1
Parameters: species or system Sus scrofa

Compound	Ki
CC[C@@H](C)[C@H](NC(=O)[C@H](Cc1ccc(O)cc1)N1CC=CC[C@]2(CCCN2C(=O)[C@H](CCCNC(=N)N)NC(=O)[C@@H](N)CCCNC(=N)N)C1=O)C(=O)N[C@@H](CC(C)C)C(=O)O	18 µM
CC[C@H](C)[C@H](NC(=O)CN(Cc1ccc(O)cc1)C(=O)[C@@H]1CCCN1C(=O)[C@H](CCCCN)NC(=O)[C@@H](N)CCCCN)C(=O)N[C@@H](CC(C)C)C(=O)O (H-KKP[Gly(N-4-hydroxybenzyl)]IL-OH)	11 µM
CC[C@H](C)[C@H](NC(=O)[C@H](Cc1ccc(O)cc1)N1C(=O)NC(=O)C2(CCCN2C(=O)[C@H](CCCNC(=N)N)NC(=O)[C@@H](N)CCCNC(=N)N)C1=O)C(=O)N[C@@H](CC(C)C)C(=O)O (single isomer, unassigned; diastereomer 1)	1.4 µM
H-RRPYAIL-OH	0.0068 µM
H-RRPYILA-OH	0.00027 µM
CC[C@H](C)[C@H](NC(=O)[C@H](Cc1ccc(O)cc1)N1CC=C[C@]2(CCCN2C(=O)[C@H](CCCNC(=N)N)NC(=O)[C@@H](N)CCCNC(=N)N)C1=O)C(=O)N[C@@H](CC(C)C)C(=O)O	7.4 µM
CC[C@H](C)[C@H](NC(=O)[C@H](Cc1ccc(O)cc1)N1CC/C=C\C[C@H]2CCN(C(=O)[C@H](CCCNC(=N)N)NC(=O)[C@@H](N)CCCNC(=N)N)[C@@H]2C1=O)C(=O)N[C@@H](CC(C)C)C(=O)O	2.4 µM and 8.6 µM
CC[C@H](C)[C@H](NC(=O)[C@H](Cc1ccc(O)cc1)NC(=O)[C@@H]1CCCN1C(=O)[C@H](CCCNC(=N)N)NC(=O)CCC(=O)O)C(=O)N[C@@H](CC(C)C)C(=O)O	2.3 µM
H-RRAPYIL-OH	0.0096 µM
H-DRPYIL-OH	0.15 µM
CC[C@H](C)[C@H](NC(=O)[C@H](Cc1ccc(O)cc1)NC(=O)[C@@H]1CCCN1C(=O)[C@H](CCCNC(=N)N)NC(=O)[C@@H](N)CCCNC(=N)N)C(=O)N[C@@H](CC(C)C)C(N)=O	0.00018 µM
CC[C@H](C)[C@H](NC(=O)[C@H](Cc1ccc(O)cc1)N1C(=O)NC(=O)C2(CCCN2C(=O)[C@H](CCCNC(=N)N)NC(=O)[C@@H](N)CCCNC(=N)N)C1=O)C(=O)N[C@@H](CC(C)C)C(=O)O (some centres not stated)	10 µM
CC[C@H](C)[C@H](NC(=O)[C@H](Cc1ccc(O)cc1)NC(=O)C[C@@H]1CCCN1C(=O)[C@H](CCCNC(=N)N)NC(=O)[C@@H](N)CCCNC(=N)N)C(=O)N[C@@H](CC(C)C)C(=O)O	0.028 µM
CC[C@H](C)[C@H](NC(=O)[C@H](Cc1ccc(O)cc1)NC(=O)[C@@H]1CCCN1C(=O)[C@H](CCCCN)NC(=O)CNCCCCN)C(=O)N[C@@H](CC(C)C)C(=O)O	0.00045 µM
CC[C@H](C)[C@H](NC(=O)[C@H](Cc1ccc(O)cc1)NC(=O)[C@@H]1CCCN1C(=O)[C@H](CCCCN)NC(=O)[C@@H](N)CCCCN)C(=O)N[C@@H](CC(C)C)C(=O)O	0.0026 µM
CC[C@H](C)[C@H](NC(=O)[C@H](Cc1ccc(O)cc1)NC(=O)[C@@H]1CCCN1C(=O)[C@H](CCCNC(=N)N)NC(=O)C[N+](C)(C)C)C(=O)N[C@@H](CC(C)C)C(=O)O	0.00065 µM
CC[C@H](C)[C@H](NC(=O)[C@H](Cc1ccc(O)cc1)NC(=O)[C@@H]1CCCN1C(=O)CN(CCCCN)C(=O)[C@@H](N)CCCCN)C(=O)N[C@@H](CC(C)C)C(=O)O	0.0057 µM
